Data reported in the supplement of paper PMC10307832.

Assays:
Assay in all cases: relative viability (nuclei count vs DMSO), 5 days (fraction); higher = more cells survive
Carboplatin + Linsitinib = compound: C1CC(C1)(C(=O)O)C(=O)O.[NH2-].[NH2-].[Pt+2] [Carboplatin] + C[C@]1(O)C[C@@H](c2nc(-c3ccc4ccc(-c5ccccc5)nc4c3)c3c(N)nccn32)C1 [Linsitinib] (partner 1 µM)
In short: (§1)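 Relative viability was taken as the ratio of nuclei in treated wells to nuclei in vehicle wells. Lung cancer cell lines in 1536-well plates received compounds by pin tool one day after seeding, either one drug alone or a fixed anchor-drug dose plus five library-drug doses (not always all listed) in √10 steps. Nuclei were counted on 4× images after 5 days of treatment, and values are medians of duplicate plates.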

Carboplatin + Olaparib = compound: C1CC(C1)(C(=O)O)C(=O)O.[NH2-].[NH2-].[Pt+2] [Carboplatin] + O=C(c1cc(Cc2n[nH]c(=O)c3ccccc23)ccc1F)N1CCN(C(=O)C2CC2)CC1 [Olaparib] (partner 8 µM)
In short: as §1

GSK126 + Alpelisib = compound: CC[C@H](C)N1C=C(C2=C(C=C(C=C21)C3=CN=C(C=C3)N4CCNCC4)C(=O)NCC5=C(C=C(NC5=O)C)C)C [GSK126] + Cc1nc(NC(=O)N2CCC[C@H]2C(N)=O)sc1-c1ccnc(C(C)(C)C(F)(F)F)c1 [Alpelisib] (partner 2 µM)
In short: as §1

GSK126 + Dasatinib = compound: CC[C@H](C)N1C=C(C2=C(C=C(C=C21)C3=CN=C(C=C3)N4CCNCC4)C(=O)NCC5=C(C=C(NC5=O)C)C)C [GSK126] + Cc1nc(Nc2ncc(C(=O)Nc3c(C)cccc3Cl)s2)cc(N2CCN(CCO)CC2)n1 [Dasatinib] (partner 0.075 µM)
In short: as §1

Cell Line | relative viability (Carboplatin + Linsitinib; first compound 0.08 µM) | relative viability (Carboplatin + Linsitinib; first compound 0.253 µM) | relative viability (Carboplatin + Linsitinib; first compound 0.8 µM) | relative viability (Carboplatin + Linsitinib; first compound 2.53 µM) | relative viability (Carboplatin + Linsitinib; first compound 8 µM) | relative viability (Carboplatin + Olaparib; first compound 0.08 µM) | relative viability (Carboplatin + Olaparib; first compound 0.253 µM) | relative viability (Carboplatin + Olaparib; first compound 0.8 µM) | relative viability (Carboplatin + Olaparib; first compound 2.53 µM) | relative viability (Carboplatin + Olaparib; first compound 8 µM) | relative viability (GSK126 + Alpelisib; first compound 0.08 µM) | relative viability (GSK126 + Alpelisib; first compound 0.253 µM) | relative viability (GSK126 + Alpelisib; first compound 0.8 µM) | relative viability (GSK126 + Alpelisib; first compound 2.53 µM) | relative viability (GSK126 + Alpelisib; first compound 8 µM) | relative viability (GSK126 + Dasatinib; first compound 0.08 µM) | relative viability (GSK126 + Dasatinib; first compound 0.253 µM) | relative viability (GSK126 + Dasatinib; first compound 0.8 µM) | relative viability (GSK126 + Dasatinib; first compound 2.53 µM) | relative viability (GSK126 + Dasatinib; first compound 8 µM)
ABC-1 | 0.633 | 0.939 | 0.779 | 0.864 | 0.703 | 1.09 | 0.759 | 0.781 | 0.654 | 0.553 | 1.19 | 1.31 | 1.02 | 1.11 | 1.01 | 0.591 | 0.544 | 0.678 | 0.535 | 0.45
LC-2-ad | 0.903 | 0.859 | 0.808 | 0.752 | 0.721 | 0.699 | 0.7 | 0.666 | 0.675 | 0.522 | 0.927 | 0.967 | 0.773 | 0.793 | 0.9 | 0.606 | 0.66 | 0.565 | 0.643 | 0.585
NCI-H460 | 0.907 | 0.803 | 0.739 | 0.445 | 0.184 | 0.444 | 0.47 | 0.253 | 0.188 | 0.187 | 0.673 | 0.486 | 0.369 | 0.504 | 0.431 | 0.562 | 0.483 | 0.455 | 0.421 | 0.569
NCI-H1915 | 1.07 | 1.11 | 1.04 | 1.01 | 0.723 | 0.253 | 0.257 | 0.225 | 0.22 | 0.21 | 1.16 | 1.05 | 1.08 | 1.05 | 1.09 | 0.3 | 0.3 | 0.34 | 0.347 | 0.328
NCI-H1299 | 1.02 | 0.993 | 0.953 | 0.965 | 0.956 | 0.967 | 0.969 | 0.96 | 0.947 | 0.826 | 1.12 | 1 | 1.01 | 0.994 | 1.18 |  |  |  |  | 
HOP-62 | 0.982 | 0.996 | 0.949 | 0.947 | 0.801 | 0.391 | 0.398 | 0.444 | 0.506 | 0.255 | 0.998 | 1.14 | 0.974 | 0.727 | 0.917 | 0.829 | 0.583 | 0.636 | 0.566 | 0.595
EPLC-272H | 1.17 | 1.32 | 1.01 | 1.11 | 1.01 | 0.857 | 0.777 | 0.798 | 0.73 | 0.527 | 1.05 | 0.997 | 0.919 | 0.951 | 0.902 | 0.456 | 0.375 | 0.321 | 0.404 | 0.327
NCI-H647 | 1.41 | 1.24 | 1.11 | 0.932 | 0.503 | 0.631 | 0.543 | 0.53 | 0.431 | 0.222 | 1.33 | 1.34 | 1.1 | 1.05 | 0.919 | 0.193 | 0.206 | 0.171 | 0.111 | 0.179
NCI-H1792 | 0.61 | 0.518 | 0.528 | 0.393 | 0.503 | 0.72 | 0.548 | 0.412 | 0.289 | 0.265 | 0.703 | 0.77 | 0.78 | 0.761 | 0.636 | 0.829 | 0.607 | 0.743 | 0.608 | 0.72
NCI-H1563 | 1.32 | 1.13 | 1.22 | 1.26 | 1.04 |  |  |  |  |  | 1.02 | 0.988 | 1.02 | 0.807 | 0.828 | 0.438 | 0.455 | 0.461 | 0.459 | 0.441
NCI-H2170 |  |  |  |  |  | 0.621 | 0.668 | 0.555 | 0.567 | 0.37 | 0.932 | 0.852 | 0.839 | 0.795 | 0.745 | 0.544 | 0.533 | 0.574 | 0.612 | 0.686
NCI-H1650 |  |  |  |  |  | 0.85 | 0.815 | 0.752 | 0.492 | 0.471 |  |  |  |  |  | 0.349 | 0.333 | 0.284 | 0.281 | 0.338
NCI-H1648 |  |  |  |  |  | 1.39 | 1.29 | 1.21 | 0.765 | 0.897 |  |  |  |  |  |  |  |  |  | 
IA-LM | 0.617 | 0.766 | 0.632 | 0.582 | 0.461 | 0.836 | 0.74 | 0.715 | 0.905 | 0.57 | 0.893 | 0.927 | 0.784 | 0.724 | 0.664 |  |  |  |  | 
ChaGo-K-1 |  |  |  |  |  | 0.43 | 0.409 | 0.376 | 0.332 | 0.362 |  |  |  |  |  | 0.653 | 0.552 | 0.629 | 0.572 | 0.547
Calu-6 | 0.988 | 0.948 | 0.943 | 0.967 | 0.601 | 0.582 | 0.552 | 0.541 | 0.475 | 0.298 | 1.04 | 0.983 | 1 | 1.01 | 1.07 |  |  |  |  | 
NCI-H1703 | 1.84 | 1.04 | 0.829 | 1.32 | 0.813 | 0.646 | 0.329 | 0.453 | 0.608 | 0.325 | 0.364 | 0.343 | 0.36 | 0.417 | 0.482 |  |  |  |  | 
EBC-1 | 0.957 | 0.993 | 0.896 | 0.918 | 0.835 | 0.775 | 0.694 | 0.725 | 0.624 | 0.567 | 1.03 | 0.792 | 0.783 | 0.729 | 0.762 |  |  |  |  | 
SW 900 |  |  |  |  |  | 0.814 | 0.968 | 0.874 | 0.818 | 0.823 |  |  |  |  |  | 0.695 | 0.494 | 0.622 | 0.508 | 0.548
NCI-H522 |  |  |  |  |  | 0.586 | 0.663 | 0.618 | 0.679 | 0.607 |  |  |  |  |  | 0.871 | 0.699 | 0.794 | 1.02 | 0.775
A549 | 0.715 | 0.717 | 0.666 | 0.522 | 0.446 | 0.332 | 0.388 | 0.314 | 0.329 | 0.174 | 0.917 | 0.75 | 0.749 | 0.826 | 0.796 |  |  |  |  | 
